Laboratory results reported in patent publication US20240115527A1, “CXCR1/CXCR2 INHIBITORS FOR USE IN TREATING MYELOFIBROSIS” (Icahn School of Medicine at Mount Sinai, priority 2020, published 2024).

How the values were obtained:
Assay type in all cases: cell-based, human
[1] = system: MF CD34+, CD41+ and CD33+ cells; assay: Proliferation and lineage differentiation of MF mononuclear cells cultured with IL-8, flow cytometry; conditions: ladarixin added to IL-8 culture, FIG. 4A
Description: To evaluate the effects of IL-8 on MF CD34^+ cells proliferation and lineage differentiation, MF mononuclear cells (MNC cells) were cultured with StemSpan™ Serum-Free Expansion Medium (SFEM) containing 20 ng/ml of stem cell factor (SCF), thrombopoietin (TPO), FL-3L and IL-3 with or without 50 ng/ml of IL-8. The cells were harvested after 3 days of incubation. The proportion of hematopoietic cells belonging to specific lineages were determined using flow cytometry.

normal donor CD34+ cells = assay: Proliferation and lineage differentiation of normal donor cells cultured with IL-8, flow cytometry; conditions: ladarixin added to IL-8 culture, FIG. 4A
MF CD34+ cells = assay: Colony forming assay (CFU-GM) of cultured MF CD34+ cells with IL-8
From the text: FIGS. 5A, 5B. 5C, 5D, and 5E illustrate that a CXCR1/CXCR2 inhibitor reverses effects of IL-8 on MF CD34^+ cell colony formation. […] CFU-GM=colony-forming unit-granulocyte-macrophage. FIGS. 5B and 5C illustrate that IL-8 increased CFU-GM colony formation by MF CD34^+ cells in a dose dependent fashion and that the effects of IL-8 were inhibited by treatment with Ladx. FIG. 5B. Normal cells. FIG. 5C. MF cells. […] Con=control. IL-8 concentrations increase from left to right. […] P values were as follows: w/o Ladx: Con vs IL-8—10 ng: 0.159332; Con vs IL-8—20 ng: 0.011976; Con vs IL-8—50 ng: 0.00262; Con vs IL-8—100 ng: 0.00042; w/ 10 μM Ladx: Con vs Ladx: 0.315782; IL-8—10 ng vs plus Ladx: 0.295851; IL-8—20 ng vs plus Ladx: 0.077726; IL-8—50 ng vs plus Ladx: 0.031355; IL-8—100 ng vs plus Ladx: 0.081595.

normal CD34+ cells = assay: Hematopoietic colony formation by normal CD34+ cells with IL-8; conditions: addition of ladarixin, FIG. 5B
[2] = system: co-cultures of MF MNC and stromal cells; assay: ELISA of IL-8 and VEGF in conditioned medium of co-cultures of MF MNC and splenic stromal cells
From the text: FIGS. 6A, 6B, 6C, 6D, and 6E illustrate that a CXCR1/CXCR2 inhibitor reverses effects of IL-8 on micro-environmental cells. […] N splenic AC=normal splenic adherent cells. nBM MNC=non-adherent bone marrow mononuclear cells. MNC=mononuclear cells. […] FIGS. 6D and 6E illustrate that addition of CXCR1/CXCR2 inhibitor Ladx decreased the levels of IL-8 (FIG. 6D) and VEGF (FIG. 6E) in conditioned medium harvested from co-cultures of MF MNC and stromal cells.

## C[C@@H](C(=O)NS(C)(=O)=O)c1ccc(OS(=O)(=O)C(F)(F)F)cc1 [Ladarixin, R(-)-2-[(4′-trifluoromethanesulfonyloxy)phenyl]-N-methanesulfonyl propionamide]
[1]
  effect on IL-8 induced change of percentage of MF CD34+, CD41+ and CD33+ cells: reversed the effects of IL-8
Normal donor CD34+ cells
  effect on IL-8 induced change of normal CD34+, CD41+ and CD33+ cell populations: reversed the effects of IL-8
MF CD34+ cells; 10 μM Ladx, FIG. 5E
  effect on IL-8 increased CFU-GM colony formation by MF samples with the highest expression of CXCR1/CXCR2: corrected
MF CD34+ cells; addition of ladarixin, FIG. 5C
  effect on IL-8 increased numbers of MF CFU-GM colonies: blunted
Normal CD34+ cells
  hematopoietic colony formation by normal CD34+ cells: did not affect
[2]; FIG. 6D
  IL-8 levels in co-cultures (conditioned medium): decreased
[2]; FIG. 6E
  VEGF levels in co-cultures (conditioned medium): decreased
